Tests used:
adiponectin mRNA = experiment: Measurement of adiponectin mRNA by quantitative RT-PCR in 3T3-L1 adipocytes; format: cell-based; details: test compound 10 μM, 48 hours then 24 hours after replacing the medium, 36B4 internal control
Procedure: Preadipocyte cell line 3T3-L1 was purchased from the American Type Culture Collection (ATCC). […] Subsequently, the medium was replaced with fresh growth medium every 3 days, and the 3T3-L1 adipocytes were prepared on day 10 after the start of differentiation. Test compounds that were poorly soluble in water were used after dissolving in DMSO. Test compounds that were easily soluble in water were dissolved in sterile water followed by addition of the same amount of DMSO as that used for the aforementioned poorly water-soluble test compounds. In addition, in the case of test compounds that are poorly soluble in water, the test compound may be dissolved in ethanol and used following the addition of 0.1 N aqueous sodium hydroxide solution after shaking as necessary. After allowing the 3T3-L1 cells to adequately differentiate into adipocytes, a test compound was added to the medium to a final concentration of 10 μM followed by culturing the cells for 48 hours. The cells were additionally cultured for 24 hours after replacing the medium. […] The synthesized cDNA was amplified using FastStrand DNA Master SYBR Green I (Roche Diagnostics), and the amplified PCR product was detected with LightCycler (Roche Diagnostics). […] The adiponectin mRNA amount was measured according to quantitative RT-PCR.

secreted adiponectin = experiment: Measurement of amount of secreted adiponectin in 3T3-L1 adipocyte culture supernatant by Western blotting; format: cell-based; details: 3T3-L1 adipocytes culture supernatant, test compound 10 μM, 48 hours then 24 hours after replacing the medium; densitometer
Procedure: Preadipocyte cell line 3T3-L1 was purchased from the American Type Culture Collection (ATCC). […] Subsequently, the medium was replaced with fresh growth medium every 3 days, and the 3T3-L1 adipocytes were prepared on day 10 after the start of differentiation. Test compounds that were poorly soluble in water were used after dissolving in DMSO. Test compounds that were easily soluble in water were dissolved in sterile water followed by addition of the same amount of DMSO as that used for the aforementioned poorly water-soluble test compounds. In addition, in the case of test compounds that are poorly soluble in water, the test compound may be dissolved in ethanol and used following the addition of 0.1 N aqueous sodium hydroxide solution after shaking as necessary. After allowing the 3T3-L1 cells to adequately differentiate into adipocytes, a test compound was added to the medium to a final concentration of 10 μM followed by culturing the cells for 48 hours. The cells were additionally cultured for 24 hours after replacing the medium. […] Secretion of adiponectin into culture supernatant was detected by Western blotting. […] After washing the PVDF membrane, the adiponectin bands were detected using ECL Detection Reagents (Amersham-Pharmacia). The bands were quantified with a densitometer (Molecular Devices). The amounts of secreted adiponectin were analyzed by Western blotting.

C57BL/6J mice [1] = experiment: Administration of pravastatin to mice in feed: blood glucose levels and adiponectin concentrations; format: in vivo; details: 0.06% (wt/wt) in feed for 15 weeks
Procedure: The body weights of the animals were measured and blood samples were collected on the day the test started, and the animals were divided into two groups of 5 animals per cage based on their body weights and blood glucose levels. […] Blood samples were collected from the tail vein in an amount equal to one heparinized capillary tube.
The amount of feed and general behaviour were checked at least once a day.
Blood glucose levels were measured on the days when blood samples were collected.

C57BL/6J mice [2] = experiment: Insulin tolerance test using pravastatin-dosed mice; format: in vivo; details: C57BL/6J mice dosed in feed for 15 weeks, fasted 2 hours, insulin 0.5 u/kg intraperitoneally; significantly lower than non-dose group (148 mg/dl)
Procedure: A group administered with pravastatin by mixing in feed for 15 weeks and a non-dosed group of C57BL/6J mice (n=5) were fasted for 2 hours. After measuring the body weight of each animal, insulin (Humalin, Lilly) was administered intraperitoneally at 0.5 u/kg, and blood samples were collected from the tail vein immediately before the start of administration and at 15, 30, 60 and 90 minutes after the start of administration followed by measurement of blood glucose levels.

[3] = test system: C57BL/6J mouse adipocytes; experiment: Glucose uptake test using isolated adipocytes from pravastatin-dosed mice; format: in vivo
Procedure: (i) Epididymal adipose tissue was excised from a group administered with pravastatin for 16 weeks and a non-dosed group of C57BL/6J mice (n=5). The excised adipose tissue was handled under conditions of 37° C. at all times. The adipose tissue was cut into small pieces with a scissors, followed by the addition of medium (DMEM, 1 mM sodium pyruvate, 25 mM HEPES pH 7.4, 0.1% BSA, 100 u/ml penicillin, 0.1 mg/ml streptomycin) containing 1 mg/ml of collagenase I (Worshington), and shaking at 37° C. and 80 rpm. Following the reaction, 2.5 volumes of the aforementioned medium were added, the adipocytes were screened out by passing the cell suspension through a 260 μm mesh sieve, and again passed through a 100 μm mesh sieve to prepare an adipocyte suspension. […] Subsequently, 0.6 μCi of ^3H-labeled 2-deoxyglucose was added and allowed to react for 30 minutes. Following the reaction, the cell suspension was immediately transferred to a centrifuge tube containing silicone oil and centrifuged. After cutting out the oil layer of the upper layer containing adipocytes with a knife, it was transferred to a glass vial containing 4 ml of Hionic Fluor (Perkin-Elmer) liquid scintillation counter cocktail followed by measurement of specific radioactivity. The amount of measured radioactivity of the ^3H-2-deoxyglucose was used as an indicator of the amount of glucose taken up by the cells. (4) Results

Structure (SMILES)	amount of adiponectin mRNA relative to the control group (adiponectin mRNA) [times]	amount of secreted adiponectin relative to the control group (secreted adiponectin) [times]	blood glucose levels, dose group versus non-dose group (C57BL/6J mice [1])	adiponectin concentrations in dose group relative to non-dose group (C57BL/6J mice [1]; blood) [times]	blood glucose level at 60 minutes after administration of insulin (C57BL/6J mice [2]) [mg/dL]	insulin sensitivity versus non-dose group ([3]; adipocytes isolated from C57BL/6J mice dosed for 16 weeks)	amount of glucose uptake relative to non-dose group ([3]; epididymal adipocytes isolated from C57BL/6J mice dosed for 16 weeks, insulin-induced 3H-2-deoxyglucose uptake) [times]
CC[C@H](C)C(=O)O[C@H]1C[C@H](O)C=C2C=C[C@H](C)[C@H](CC[C@@H](O)C[C@@H](O)CC(=O)O)[C@H]21 [pravastatin, (+)-(3R,5R)-3,5-dihydroxy-7-[(1S,2S,6S,8S,8aR)-6-hydroxy-2-methyl-8-[(S)-2-methylbutyryloxy]-1,2,6,7,8,8a-hexahydro-1-naphthyl]heptanoic acid]	1.6	1.7	no significant differences	1.28	110	increased insulin sensitivity	1.4
CC(C)c1nc(N(C)S(C)(=O)=O)nc(-c2ccc(F)cc2)c1/C=C/[C@@H](O)C[C@@H](O)CC(=O)O [rosuvastatin, (+)-(3R,5S)-7-[4-(4-fluorophenyl)-6-isopropyl-2-(N-methyl-N-methanesulfonylamino)pyrimidin-5-yl]-3,5-dihydroxy-6(E)-heptenoic acid]	1.3	1.6	–	–	–	–	–
